Laboratory results published in US10479784B2, “Substituted pyrazin-2-amines as inhibitors of ATR kinase” (Vertex Pharmaceuticals Incorporated, priority 2008, dated 2019).

Biological target: full-length ATR (Homo sapiens (Human), UniProt Q13535)
Assay: ATR Inhibition Assay (radioactive-phosphate incorporation)
Type: biochemical
Details: read-out: ATR Ki
Procedure: Compounds were screened for their ability to inhibit ATR kinase using a radioactive-phosphate incorporation assay. Assays were carried out in a mixture of 50 mM Tris/HCl (pH 7.5), 10 mM MgCl2 and 1 mM DTT. Final substrate concentrations were […] [γ-33P]ATP (3mCi 33P ATP/mmol ATP, Perkin Elmer) and 800 μM target peptide ([…]).
Assays were carried out at 25° C. in the presence of 5 nM full-length ATR. An assay stock buffer solution was prepared containing all of the reagents listed above, with the exception of ATP and the test compound of interest. […] The plate was pre-incubated for 10 minutes at 25° C. and the reaction initiated by addition of 15 μL [γ-33P]ATP (final concentration 10 μM).
The reaction was stopped after […] by the addition of 30 μL 0.1M phosphoric acid containing 2 mM ATP. A multiscreen phosphocellulose filter 96-well plate (Millipore, Cat no. MAPHN0B50) was pretreated with 100 μL 0.2M phosphoric acid prior to the addition of 45 μL of the stopped assay mixture. […] After drying, 100 μL Optiphase ‘SuperMix’ liquid scintillation cocktail (Perkin Elmer) was added to the well prior to scintillation counting (1450 Microbeta Liquid Scintillation Counter, Wallac).
After removing mean background values for all of the data points, Ki(app) data were calculated from non-linear regression analysis of the initial rate data using the Prism software package (GraphPad Prism version 3.0cx for Macintosh, GraphPad Software, San Diego Calif., USA).

Sequence of full-length ATR (Q13535 whole entry): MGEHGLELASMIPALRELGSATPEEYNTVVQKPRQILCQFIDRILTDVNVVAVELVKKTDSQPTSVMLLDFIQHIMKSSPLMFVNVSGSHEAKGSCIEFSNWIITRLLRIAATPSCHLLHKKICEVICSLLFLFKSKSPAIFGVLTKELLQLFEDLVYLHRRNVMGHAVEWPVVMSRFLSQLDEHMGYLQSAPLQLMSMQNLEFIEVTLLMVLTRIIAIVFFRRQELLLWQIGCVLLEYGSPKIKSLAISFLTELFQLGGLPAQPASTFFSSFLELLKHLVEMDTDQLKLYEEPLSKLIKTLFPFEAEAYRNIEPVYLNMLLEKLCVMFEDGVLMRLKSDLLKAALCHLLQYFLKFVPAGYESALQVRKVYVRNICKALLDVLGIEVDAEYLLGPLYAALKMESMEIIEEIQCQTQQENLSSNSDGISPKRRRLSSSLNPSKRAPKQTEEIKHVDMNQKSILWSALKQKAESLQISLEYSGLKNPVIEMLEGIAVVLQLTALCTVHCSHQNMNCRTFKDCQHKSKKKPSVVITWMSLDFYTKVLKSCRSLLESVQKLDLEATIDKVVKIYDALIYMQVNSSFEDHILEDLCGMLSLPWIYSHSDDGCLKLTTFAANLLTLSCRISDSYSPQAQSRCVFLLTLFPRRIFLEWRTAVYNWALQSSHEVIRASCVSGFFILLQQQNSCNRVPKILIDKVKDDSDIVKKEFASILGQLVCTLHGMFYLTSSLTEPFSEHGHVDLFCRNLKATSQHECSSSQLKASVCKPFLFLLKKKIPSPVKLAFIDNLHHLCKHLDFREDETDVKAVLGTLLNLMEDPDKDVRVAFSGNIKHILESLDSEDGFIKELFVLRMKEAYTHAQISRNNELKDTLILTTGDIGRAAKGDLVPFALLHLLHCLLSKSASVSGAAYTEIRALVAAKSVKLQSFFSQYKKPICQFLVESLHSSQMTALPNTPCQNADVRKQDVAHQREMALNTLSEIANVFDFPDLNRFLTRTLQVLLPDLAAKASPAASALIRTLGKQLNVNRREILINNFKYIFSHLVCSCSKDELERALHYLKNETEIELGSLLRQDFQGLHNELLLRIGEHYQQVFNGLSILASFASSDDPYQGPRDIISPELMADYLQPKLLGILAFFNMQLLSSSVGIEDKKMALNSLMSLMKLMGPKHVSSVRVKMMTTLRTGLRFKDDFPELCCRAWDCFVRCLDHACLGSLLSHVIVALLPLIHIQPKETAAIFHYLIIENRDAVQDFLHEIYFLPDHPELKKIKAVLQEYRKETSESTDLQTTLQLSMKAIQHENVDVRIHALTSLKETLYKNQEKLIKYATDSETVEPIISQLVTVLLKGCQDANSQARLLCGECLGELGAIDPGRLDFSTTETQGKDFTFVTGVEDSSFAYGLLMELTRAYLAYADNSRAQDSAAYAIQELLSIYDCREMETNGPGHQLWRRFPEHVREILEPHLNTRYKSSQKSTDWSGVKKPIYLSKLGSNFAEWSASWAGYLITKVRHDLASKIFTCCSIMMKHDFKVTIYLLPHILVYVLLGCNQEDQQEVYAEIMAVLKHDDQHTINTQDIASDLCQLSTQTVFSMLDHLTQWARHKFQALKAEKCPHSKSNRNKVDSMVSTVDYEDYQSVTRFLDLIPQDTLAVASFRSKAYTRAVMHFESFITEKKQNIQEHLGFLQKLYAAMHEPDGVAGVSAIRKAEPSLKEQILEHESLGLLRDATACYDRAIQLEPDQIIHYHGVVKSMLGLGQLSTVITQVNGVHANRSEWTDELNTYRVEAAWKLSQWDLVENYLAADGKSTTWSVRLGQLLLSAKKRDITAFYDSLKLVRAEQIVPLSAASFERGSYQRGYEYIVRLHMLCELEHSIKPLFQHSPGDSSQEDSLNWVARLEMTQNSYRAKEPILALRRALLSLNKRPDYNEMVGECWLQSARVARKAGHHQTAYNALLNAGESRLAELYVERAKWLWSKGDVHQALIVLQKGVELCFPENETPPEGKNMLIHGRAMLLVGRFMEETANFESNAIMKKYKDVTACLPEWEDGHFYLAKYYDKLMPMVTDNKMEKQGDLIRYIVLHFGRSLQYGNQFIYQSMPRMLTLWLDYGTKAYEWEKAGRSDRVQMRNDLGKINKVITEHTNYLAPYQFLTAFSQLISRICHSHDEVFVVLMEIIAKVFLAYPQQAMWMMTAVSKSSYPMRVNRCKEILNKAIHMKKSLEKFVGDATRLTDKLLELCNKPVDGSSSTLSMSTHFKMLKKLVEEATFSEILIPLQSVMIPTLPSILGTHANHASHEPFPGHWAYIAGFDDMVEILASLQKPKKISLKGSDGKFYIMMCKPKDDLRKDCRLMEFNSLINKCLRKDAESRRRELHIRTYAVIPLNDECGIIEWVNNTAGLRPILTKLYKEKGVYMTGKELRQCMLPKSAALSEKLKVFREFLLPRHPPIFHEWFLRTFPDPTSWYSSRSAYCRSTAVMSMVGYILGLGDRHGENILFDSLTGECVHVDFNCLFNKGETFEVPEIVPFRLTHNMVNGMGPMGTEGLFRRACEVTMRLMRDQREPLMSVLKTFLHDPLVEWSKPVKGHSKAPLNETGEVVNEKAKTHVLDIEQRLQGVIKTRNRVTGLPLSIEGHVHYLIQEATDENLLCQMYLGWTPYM

| Ki [nM] | Compound |
| --- | --- |
| 100 to 5000 | Nc1ncc(-c2ccc(N3CCOCC3)cc2)nc1C(=O)Nc1ccccc1 [Compound I-13, 3-amino-6-(4-morpholinophenyl)-N-phenylpyrazine-2-carboxamide] |
| 100 to 5000 | COc1cnccc1-c1cnc(N)c(-c2nnc(-c3ccccc3)o2)n1 [IA-86, 5-(3-methoxy-4-pyridyl)-3-(5-phenyl-1,3,4-oxadiazol-2-yl)pyrazin-2-amine] |
| ≤ 10 | CC(C)S(=O)(=O)c1ccc(-c2cnc(N)c(-c3nnc(-c4ccc(CN[C@H](C)CO)cc4F)o3)n2)cc1 [IA-333, (R)-2-(4-(5-(3-amino-6-(4-(isopropylsulfonyl)phenyl)pyrazin-2-yl)-1,3,4-oxadiazol-2-yl)-3-fluorobenzylamino)propan-1-ol] |
| 100 to 5000 | CN(C)Cc1ccc(-c2cnc(N)c(-c3nnc(-c4ccc(CO)cc4)o3)n2)cc1 [IA-240, [4-[5-[3-amino-6-[4-(dimethylaminomethyl)phenyl]pyrazin-2-yl]-1,3,4-oxadiazol-2-yl]phenyl]methanol] |
| ≤ 10 | CNCc1ccc(-c2nnc(-c3nc(-c4ccc(S(=O)(=O)C5CCOCC5)cc4)cnc3N)o2)cc1 [IA-323, 3-[5-[4-(methylaminomethyl)phenyl]-1,3,4-oxadiazol-2-yl]-5-(4-tetrahydropyran-4-ylsulfonylphenyl)pyrazin-2-amine] |
| ≤ 10 | CC(C)S(=O)(=O)c1ccc(-c2cnc(N)c(-c3nnc(-c4ccc(CCN)cc4)o3)n2)cc1 [IA-107, 3-[5-[4-(2-aminoethyl)phenyl]-1,3,4-oxadiazol-2-yl]-5-(4-isopropylsulfonylphenyl)pyrazin-2-amine] |
| 100 to 5000 | CC(C)S(=O)(=O)c1ccc(-c2cnc(N)c(-c3nnc(NC4CCCNC4)o3)n2)cc1 (stereo not drawn) [IA-199, 5-[3-amino-6-(4-isopropylsulfonylphenyl)pyrazin-2-yl]-N-(3-piperidyl)-1,3,4-oxadiazol-2-amine] |
| ≤ 10 | Nc1ncc(-c2ccc(S(=O)(=O)C3CCNCC3)cc2)nc1-c1nnc(-c2ccccc2)o1 [IA-197, 3-(5-phenyl-1,3,4-oxadiazol-2-yl)-5-[4-(4-piperidylsulfonyl)phenyl]pyrazin-2-amine] |
| ≤ 10 | CC(C)S(=O)(=O)c1ccc(-c2cnc(N)c(-c3nnc(-c4ccc(CN[C@@H](C)CO)cc4F)o3)n2)cc1 [IA-335, (S)-2-(4-(5-(3-amino-6-(4-(isopropylsulfonyl)phenyl)pyrazin-2-yl)-1,3,4-oxadiazol-2-yl)-3-fluorobenzylamino)propan-1-ol] |
| 10 to 100 | Cc1ccc2nc(-c3nc(-c4ccc(C(=O)N5CCN(C)CC5)cc4)cnc3N)[nH]c2c1 [Compound I-150, (4-(5-amino-6-(6-methyl-1H-benzo[d]imidazol-2-yl)pyrazin-2-yl)phenyl)(4-methylpiperazin-1-yl)methanone] |
| 10 to 100 | Nc1ncc(-c2cccnc2)nc1C(=O)Nc1ccc2cc[nH]c2c1 [Compound I-105, 3-amino-N-(1H-indol-6-yl)-6-(pyridin-3-yl)pyrazine-2-carboxamide] |
| 10 to 100 | COc1ccccc1NC(=O)c1nc(-c2ccoc2)cnc1N [Compound I-37, 3-amino-6-(furan-3-yl)-N-(2-methoxyphenyl)pyrazine-2-carboxamide] |
| ≤ 10 | CN(C)C(=O)c1ccc(-c2cnc(N)c(-c3nnc(-c4ccc(CO)cc4)o3)n2)cc1 [IA-76, 4-[5-amino-6-[5-[4-(hydroxymethyl)phenyl]-1,3,4-oxadiazol-2-yl]pyrazin-2-yl]-N,N-dimethyl-benzamide] |
| ≤ 10 | CC(N)c1cccc(-c2nnc(-c3nc(-c4ccc(S(=O)(=O)C(C)C)cc4)cnc3N)o2)c1 (stereo not drawn) [IA-282, 3-[5-[3-(1-aminoethyl)phenyl]-1,3,4-oxadiazol-2-yl]-5-(4-isopropylsulfonylphenyl)pyrazin-2-amine] |
| 10 to 100 | C[C@H](Nc1nnc(-c2nc(-c3ccc(C(=O)N(C)C)cc3)cnc2N)o1)c1ccc(Cl)cc1 [IA-129, 4-[5-amino-6-[5-[[(1 S)-1-(4-chlorophenyl)ethyl]amino]-1,3,4-oxadiazol-2-yl]pyrazin-2-yl]-N,N-dimethyl-benzamide] |
